Holding throughout (experiment): relative viability (nuclei count vs DMSO), 5 days (fraction); higher = more cells survive
Compound in test [1]: CC1CC(=O)N(C2=CN=C(N=C2N1C3CCCC3)NC4=C(C=C(C=C4)C(=O)NC5CCN(CC5)C)OC)C [NPK76-II-72-1] + CS(=O)(=O)N1CCN(Cc2cc3nc(-c4cccc5[nH]ncc45)nc(N4CCOCC4)c3s2)CC1 [Pictilisib] (partner 1 µM)
In short, it runs like this:
(§1)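 Lung cancer cell lines, seeded in 1536-well plates, were treated the following day by pin tool with a single drug or with five library-drug doses (not always all listed) in √10 steps on top of a fixed anchor-drug dose. Cells were fixed and nuclei stained in one step after 5 days, and nuclei were counted. Relative viability is the nuclei count for treated wells divided by that for vehicle wells, reported as medians of duplicate plates.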

Compound in the test “BI-2536 + Dasatinib”: CC[C@@H]1C(=O)N(C)c2cnc(Nc3ccc(C(=O)NC4CCN(C)CC4)cc3OC)nc2N1C1CCCC1 [BI-2536] + Cc1nc(Nc2ncc(C(=O)Nc3c(C)cccc3Cl)s2)cc(N2CCN(CCO)CC2)n1 [Dasatinib] (partner 0.075 µM)
The gist of the method:
as §1

Compound in test [2]: CC1CC(=O)N(C2=CN=C(N=C2N1C3CCCC3)NC4=C(C=C(C=C4)C(=O)NC5CCN(CC5)C)OC)C [NPK76-II-72-1] + CC1(C)CCC(c2ccc(Cl)cc2)=C(CN2CCN(c3ccc(C(=O)NS(=O)(=O)c4ccc(N[C@H](CCN5CCOCC5)CSc5ccccc5)c(S(=O)(=O)C(F)(F)F)c4)cc3)CC2)C1 [Navitoclax] (partner 0.5 µM)
The gist of the method:
as §1

Compound in the test “NPK76-II-72-1 + Olaparib”: CC1CC(=O)N(C2=CN=C(N=C2N1C3CCCC3)NC4=C(C=C(C=C4)C(=O)NC5CCN(CC5)C)OC)C [NPK76-II-72-1] + O=C(c1cc(Cc2n[nH]c(=O)c3ccccc23)ccc1F)N1CCN(C(=O)C2CC2)CC1 [Olaparib] (partner 8 µM)
The gist of the method: as §1

This passage reports relative viability results from the supplement of paper PMC10307832.

As to UMC-11, the relative viability in test [1] (first compound 0.01 µM) came to 0.75; in test [1] (first compound 0.03162 µM), 0.707; in test [1] (first compound 0.1 µM), 0.881; in test [1] (first compound 0.3162 µM), 0.806; in test [1] (first compound 1 µM), 0.778; with BI-2536 + Dasatinib (first compound 0.01 µM), 0.432. In addition, the relative viability turned out to be 0.243 in the test with BI-2536 + Dasatinib (first compound 0.03162 µM); 0.141 with BI-2536 + Dasatinib (first compound 0.1 µM); 0.183 with BI-2536 + Dasatinib (first compound 0.3162 µM); 0.158 in the test with BI-2536 + Dasatinib (first compound 1 µM); 0.313 in test [2] (first compound 0.01 µM); 0.276 in test [2] (first compound 0.03162 µM). Moreover, the relative viability was 0.302 in test [2] (first compound 0.1 µM); 0.305 in test [2] (first compound 0.3162 µM); 0.357 in test [2] (first compound 1 µM); 0.381 in the test with NPK76-II-72-1 + Olaparib (first compound 0.01 µM); 0.339 in the test with NPK76-II-72-1 + Olaparib (first compound 0.03162 µM); 0.386 with NPK76-II-72-1 + Olaparib (first compound 0.1 µM). Moreover, the relative viability was 0.358 in the test with NPK76-II-72-1 + Olaparib (first compound 0.3162 µM) and 0.403 in the test with NPK76-II-72-1 + Olaparib (first compound 1 µM).
